# Measurements as given in ChEMBL document CHEMBL6092167, “Phosphorylation as an Effective Tool to Improve Stability and Reduce Toxicity of Antimicrobial Peptides” (J Med Chem, 2024).
# The source made the active and inactive calls. No cut-off for these calls is given here. Non-standard residues stand in square brackets, D forms with d. Residues, ends and D or L forms follow the SMILES beside them. Bip = N[C@@H](Cc1ccc(-c2ccccc2)cc1)C(=O)O; pY = N[C@@H](Cc1ccc(OP(=O)(O)O)cc1)C(=O)O
# Columns and labels:
# [1] = tested on: Pseudomonas aeruginosa; experiment: Antibiofilm activity against Pseudomonas aeruginosa ATCC 27853 assessed as eradication of preformed biofilms at 4 times MIC incubated for 24 hrs by crystal violet staining based assay; assay type: functional, organism-based
# [2] = tested on: Staphylococcus aureus; experiment: Antibacterial activity against Staphylococcus aureus ATCC 25923 infected in BALB/c mouse systemic infection model assessed as reduction in bacterial load in spleen at 20 mg/kg, ip pre-infected for 2 hrs followed by compound addition and measured after 8 hrs postinfection; assay type: functional, organism-based; conditions: time 6.0 hrs
# [3] = tested on: Klebsiella pneumoniae; experiment: Antibacterial activity against Klebsiella pneumoniae ATCC 700603 infected in BALB/c mouse lung infection model assessed as increase in mouse survival at 5 mg/kg, ip administered twice daily for 3 days and measured for 7 days; assay type: functional, organism-based; conditions: time 10.0 day
# [4] = tested on: Klebsiella pneumoniae; experiment: Antibacterial activity against Klebsiella pneumoniae ATCC 700603 infected in BALB/c mouse lung infection model assessed as removal of bacterial load at 5 mg/kg, ip administered twice daily for 3 days and measured after 6 days; assay type: functional; conditions: time 9 day
# [5] = tested on: Klebsiella pneumoniae; experiment: Antibacterial activity against rifampicin resistant Klebsiella pneumoniae; assay type: functional
# [6] = tested on: Escherichia coli; experiment: Antibacterial activity against Escherichia coli ATCC 25922 assessed as fold increase in MIC preincubated with serum for 6 hrs followed by 15 mins inactivation prior to bacteria addition and measured after 18 to 24 hrs; assay type: functional; conditions: time 18-24 hrs
# [7] = tested on: Klebsiella pneumoniae; experiment: Inhibition of rifampicin resistance in Klebsiella pneumoniae ATCC 700603 at 1:1 compound: rifampicin molar ratio measured after 20 generation; assay type: functional, organism-based
# [8] = tested on: Staphylococcus aureus; experiment: Antibacterial activity against Staphylococcus aureus ATCC 25923 infected in BALB/c mouse systemic infection model assessed as improved alveoli dilation at 20 mg/kg, ip pre-infected for 2 hrs followed by compound addition and measured after 8 hrs postinfection; assay type: functional, organism-based; conditions: time 6.0 hrs
# [9] = target: Trypsin (Homo sapiens, UniProt P07477+P07478+P35030); experiment: Stability of compound assessed as trypsin (unknown origin) mediated compound degradation; assay type: ADME, protein assay
# [10] = tested on: Staphylococcus aureus; experiment: Antibacterial activity against Staphylococcus aureus ATCC 25923 infected in BALB/c mouse systemic infection model assessed as reduction in inflammatory response in lung tissue at 20 mg/kg, ip pre-infected for 2 hrs followed by compound addition and measured after 8 hrs postinfection; assay type: functional, organism-based; conditions: time 6.0 hrs
# [11] = Toxicity in ip dosed BALB/c mouse assessed as inflammatory cell infiltration in lung at LD50 dose by H and E staining based assay; assay type: organism-based; conditions: in vivo
# [12] = Hemolytic activity in mouse erythrocyte incubated for 1 hr by microplate reader assay; assay type: toxicity, cell-based
# [13] = tested on: Escherichia coli; experiment: Inhibition of biofilm formation in Escherichia coli ATCC 25922 incubated for 24 hrs by crystal violet staining based assay; assay type: functional, organism-based
# [14] = tested on: Escherichia coli; experiment: Antibiofilm activity against Escherichia coli ATCC 25922 assessed as eradication of preformed biofilms at 2 to 4 times MIC incubated for 24 hrs by crystal violet staining based assay; assay type: functional, organism-based
# [15] = tested on: Klebsiella pneumoniae; experiment: Additive antibacterial activity against Klebsiella pneumoniae ATCC 700603 assessed as fractional inhibitory concentration index at 1/4 to 4 times MIC incubated for 18 to 24 hrs in presence of rifampicin by checkerboard assay; assay type: functional; conditions: time 18-24 hrs
# [16] = tested on: Acinetobacter baumannii; experiment: Antibacterial activity against Acinetobacter baumannii ATCC 19606 incubated for 18 to 24 hrs by broth microdilution method; assay type: functional; conditions: time 18-24 hrs
# [17] = tested on: Staphylococcus aureus; experiment: Bactericidal activity against Staphylococcus aureus ATCC 25923 at 2 times MIC measured upto 1440 mins by time kill assay; assay type: functional, organism-based
# [18] = tested on: Staphylococcus aureus; experiment: Antibiofilm activity against Staphylococcus aureus ATCC 25923 assessed as eradication of preformed biofilms at 2 to 4 times MIC incubated for 24 hrs by crystal violet staining based assay; assay type: functional, organism-based
# [19] = tested on: Staphylococcus aureus; experiment: Antibacterial activity against Staphylococcus aureus ATCC 25923 preincubated with serum for 6 hrs followed by 15 mins inactivation prior to bacteria addition and measured after 18 to 24 hrs; assay type: functional, organism-based; conditions: time 18-24 hrs
# [20] = tested on: Staphylococcus aureus; experiment: Antibacterial activity against Staphylococcus aureus ATCC 25923 infected in BALB/c mouse systemic infection model assessed as reduction in bacterial load in spleen at 21.21 mg/kg, ip pre-infected for 2 hrs followed by compound addition and measured after 8 hrs postinfection; assay type: functional, organism-based; conditions: time 6.0 hrs
# [21] = tested on: Klebsiella pneumoniae; experiment: Antibacterial activity against Klebsiella pneumoniae ATCC 700603 infected in BALB/c mouse lung infection model assessed as removal of bacterial load at 5.31 mg/kg, ip administered twice daily for 3 days and measured after 6 days; assay type: functional; conditions: time 9 day
# [22] = tested on: Escherichia coli; experiment: Antibacterial activity against Escherichia coli ATCC 25922 in presence of […]; assay type: functional, organism-based
# [23] = tested on: Staphylococcus aureus; experiment: Antibacterial activity against Staphylococcus aureus ATCC 25923 infected in BALB/c mouse systemic infection model assessed as reduction in inflammatory response in lung tissue at 21.21 mg/kg, ip pre-infected for 2 hrs followed by compound addition and measured after 8 hrs postinfection; assay type: functional, organism-based; conditions: time 6.0 hrs
# [24] = tested on: Staphylococcus aureus; experiment: Antibacterial activity against Staphylococcus aureus ATCC 25923 infected in BALB/c mouse systemic infection model assessed as improved alveoli dilation at 21.21 mg/kg, ip pre-infected for 2 hrs followed by compound addition and measured after 8 hrs postinfection; assay type: functional, organism-based; conditions: time 6.0 hrs
# [25] = tested on: Staphylococcus aureus; experiment: Antibacterial activity against Staphylococcus aureus ATCC 25923 in presence of MgCl2; assay type: functional, organism-based
# [26] = tested on: Staphylococcus aureus; experiment: Antibacterial activity against Staphylococcus aureus ATCC 25923 in presence of ZnCl2; assay type: functional, organism-based
# [27] = Toxicity in ip dosed BALB/c mouse assessed as effect on heart at LD50 dose by H and E staining based assay; assay type: organism-based; conditions: in vivo
# [28] = tested on: Staphylococcus aureus; experiment: Antibacterial activity against Staphylococcus aureus ATCC 25923 infected in BALB/c mouse systemic infection model assessed as reduction in bacterial load in lung at 21.21 mg/kg, ip pre-infected for 2 hrs followed by compound addition and measured after 8 hrs postinfection; assay type: functional, organism-based; conditions: time 6.0 hrs
# [29] = tested on: Escherichia coli; experiment: Antibacterial activity against Escherichia coli ATCC 25922 in presence of FeCl3; assay type: functional, organism-based
# [30] = tested on: Escherichia coli; experiment: Antibacterial activity against Escherichia coli ATCC 25922 in presence of KCl; assay type: functional, organism-based
# [31] = tested on: Klebsiella pneumoniae; experiment: Antibacterial activity against Klebsiella pneumoniae ATCC 700603 infected in BALB/c mouse lung infection model assessed as increase in mouse survival at 5.31 mg/kg, ip administered twice daily for 3 days and measured for 7 days; assay type: functional, organism-based; conditions: time 10.0 day
# [32] = tested on: Escherichia coli; experiment: Antibacterial activity against Escherichia coli ATCC 25922 in presence of ZnCl2; assay type: functional, organism-based
# [33] = tested on: Staphylococcus aureus; experiment: Antibacterial activity against Staphylococcus aureus ATCC 25923 infected in BALB/c mouse systemic infection model assessed as reduction in bacterial load in liver at 21.21 mg/kg, ip pre-infected for 2 hrs followed by compound addition and measured after 8 hrs postinfection; assay type: functional, organism-based; conditions: time 6.0 hrs
# [34] = Toxicity in BALB/c mouse assessed as mortality at 220 to 350 mg/kg, ip measured after 14 days; assay type: organism-based; conditions: in vivo, 336 h, dose 220-350 mg/kg, time 14 day
# [35] = tested on: Klebsiella pneumoniae; experiment: Antibacterial activity against Klebsiella pneumoniae ATCC 700603 infected in BALB/c mouse lung infection model assessed as improved alveolar aggregation at 5.31 mg/kg, ip administered twice daily for 3 days and measured after 7 days; assay type: functional, organism-based; conditions: time 10.0 day
# [36] = tested on: Klebsiella pneumoniae; experiment: Antibacterial activity against Klebsiella pneumoniae ATCC 700603 infected in BALB/c mouse lung infection model assessed as alveolar dilation at 5.31 mg/kg, ip administered twice daily for 3 days and measured after 7 days; assay type: functional, organism-based; conditions: time 10.0 day
# [37] = Toxicity in ip dosed BALB/c mouse assessed as kidney edema at LD50 dose by H and E staining based assay; assay type: organism-based; conditions: in vivo
smiles,measurement,setting,value
CC(C)C[C@H](NC(=O)[C@H](CC(C)C)NC(=O)[C@H](Cc1ccc(O)cc1)NC(=O)[C@H](CCCCN)NC(=O)[C@H](CC(C)C)NC(=O)[C@H](CCCNC(=N)N)NC(=O)[C@H](CCCCN)NC(=O)[C@H](Cc1ccc(-c2ccccc2)cc1)NC(=O)[C@H](CC(C)C)NC(=O)CN)C(N)=O (H-GL[Bip]KRLKYLL-NH2),Activity,[1],Active
same,Activity,[2],Active
same,Activity,[3],Active; Comparable Activity To Polymyxin B
same,Activity,[4],100%
same,MIC,[5],8 µM
same,fold change (FC),[6],2
same,inhibition,[7],Active
same,Activity,[8],Active
same,Stability,[9],Stable
same,Activity,[10],Active
same,Activity,[11],Toxic
same,MHC,[12],27.38 µM
same,inhibition,[13],Dose-dependent-effect; Inhibition Comparable To Polymyxin B
same,Activity,[14],Active
same,fractional inhibitory concentration index (FICI),[15],0.563
same,MIC,[16],8 µM
same,Activity,[17],Active
same,Activity,[18],Active
CC(C)C[C@H](NC(=O)[C@H](CC(C)C)NC(=O)[C@H](Cc1ccc(OP(=O)(O)O)cc1)NC(=O)[C@H](CCCCN)NC(=O)[C@H](CC(C)C)NC(=O)[C@H](CCCNC(=N)N)NC(=O)[C@H](CCCCN)NC(=O)[C@H](Cc1ccc(-c2ccccc2)cc1)NC(=O)[C@H](CC(C)C)NC(=O)CN)C(N)=O (H-GL[Bip]KRLK[pY]LL-NH2),Activity,[19],Active; Antibacterial Activity Remained Unaffected
same,Activity,[1],Active
same,Activity,[20],Active
same,Activity,[21],100%
same,MIC,[5],8 µM
same,Activity,[22],Active; Compound Showed Excellent Tolerance Towards Salt Environment
same,Activity,[23],Active
same,Activity,[24],Active
same,Activity,[25],Active; Compound Showed Excellent Tolerance Towards Salt Environment
same,Activity,[26],Active; Compound Showed Excellent Tolerance Towards Salt Environment
same,Activity,[27],Toxic
same,Activity,[28],Active
same,inhibition,[7],Active
same,Activity,[29],Active; Compound Showed Excellent Tolerance Towards Salt Environment
same,Activity,[30],Active; Compound Showed Excellent Tolerance Towards Salt Environment
same,Stability,[9],Stable
same,Activity,[31],Active; Comparable Activity To Polymyxin B
same,Activity,[32],Active; Compound Showed Excellent Tolerance Towards Salt Environment
same,MHC,[12],> 256 µM
same,inhibition,[13],Dose-dependent-effect; Inhibition Comparable To Polymyxin B
same,Activity,[14],Active
same,Activity,[33],Active
same,fractional inhibitory concentration index (FICI),[15],0.563
same,MIC,[16],4 µM
same,Activity,[34],Toxic
same,Activity,[18],Active
same,Activity,[35],Active
same,Activity,[36],Active
same,Activity,[37],Toxic
